Columns and labels:
[1] = target: T1, human topoisomerase I (topo70) in covalent complex with duplex 22 mer DNA (Homo sapiens, UniProt P11387); experiment: X-ray crystal structure of ternary topo70-DNA-compound complex; format: binding
T1 construct: residues 175 to 765 of the natural protein plus an N-terminal initiating methionine; initiating methionine (one added Met before residue 175) (N); made in house; host or cells: insect cells (recombinant baculovirus, pFastBac-topo70 wt)
T1 sequence (P11387 175-765): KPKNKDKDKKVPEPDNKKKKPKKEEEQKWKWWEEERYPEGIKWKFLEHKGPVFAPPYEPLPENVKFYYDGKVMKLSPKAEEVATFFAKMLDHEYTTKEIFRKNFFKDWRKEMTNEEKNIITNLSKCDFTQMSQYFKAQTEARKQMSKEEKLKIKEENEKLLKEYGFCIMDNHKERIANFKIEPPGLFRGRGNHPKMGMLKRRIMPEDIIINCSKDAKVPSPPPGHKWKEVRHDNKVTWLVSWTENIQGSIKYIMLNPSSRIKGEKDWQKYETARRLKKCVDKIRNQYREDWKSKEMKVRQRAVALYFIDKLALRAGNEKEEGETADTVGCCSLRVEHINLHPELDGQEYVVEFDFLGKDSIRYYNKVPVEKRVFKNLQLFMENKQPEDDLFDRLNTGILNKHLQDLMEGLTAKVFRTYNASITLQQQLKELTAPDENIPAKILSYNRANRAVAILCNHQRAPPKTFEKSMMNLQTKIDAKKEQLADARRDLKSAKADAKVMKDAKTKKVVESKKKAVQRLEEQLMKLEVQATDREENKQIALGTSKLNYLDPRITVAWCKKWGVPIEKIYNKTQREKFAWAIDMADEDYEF

[2] = target: T2, reconstituted "linker-less" human Topo I (Homo sapiens, UniProt P11387); conditions: Stewart et al., J. Biol. Chem. 1999; cited from earlier work
T2 sequence (P11387 175-659 limits assumed): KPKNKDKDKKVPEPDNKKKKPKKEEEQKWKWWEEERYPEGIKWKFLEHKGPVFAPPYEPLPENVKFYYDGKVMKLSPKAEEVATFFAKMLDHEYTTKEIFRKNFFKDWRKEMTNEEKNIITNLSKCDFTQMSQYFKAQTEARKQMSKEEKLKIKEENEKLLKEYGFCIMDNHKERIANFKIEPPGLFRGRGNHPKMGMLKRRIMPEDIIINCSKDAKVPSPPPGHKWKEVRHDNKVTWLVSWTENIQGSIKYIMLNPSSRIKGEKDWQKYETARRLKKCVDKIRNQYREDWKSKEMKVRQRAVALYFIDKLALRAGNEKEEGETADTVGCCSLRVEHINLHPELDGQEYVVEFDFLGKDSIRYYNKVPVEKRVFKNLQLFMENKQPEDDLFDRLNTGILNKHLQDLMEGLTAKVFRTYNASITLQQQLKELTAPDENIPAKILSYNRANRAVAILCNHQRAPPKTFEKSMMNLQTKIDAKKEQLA
T2 sequence (P11387 713-765 limits assumed): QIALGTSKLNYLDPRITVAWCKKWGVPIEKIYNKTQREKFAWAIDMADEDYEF

Topo I = conditions: Hsiang et al., Cancer Res 1989; cited from earlier work
[3] = Giovanella et al., Science 1989; cited from earlier work
[4] = unrestrained full matrix refinement of occupancy factors, standard uncertainty 7%

CCOc1ccc(-c2nc3ccc(-c4nc5ccc(N6CCN(C)CC6)cc5[nH]4)cc3[nH]2)cc1 [Hoecsht-33342]
binding site relative to camptothecin ([1]; Form 11 structure): do not bind at the same site as camptothecin

CC[C@@]1(O)C(=O)OCc2c1cc1n(c2=O)Cc2cc3c(CN(C)C)c(O)ccc3nc2-1 [topotecan]
relaxation-inhibition effect on linker-less Topo I [2]: resistant to the relaxation-inhibition effect
binding mode in the crystal structure ([1]; Form 9-TTC, Form 9-AG260, Form 10 structures): intercalate at the site of DNA cleavage
occupancy of closed lactone form in the bound complex [1, 4]: 63%
occupancy of open carboxylate form in the bound complex [1, 4]: 37%

CC[C@@](O)(C(=O)[O-])c1cc2n(c(=O)c1CO)Cc1cc3ccccc3nc1-2.[Na+] [sodium carboxylate form of camptothecin]
Topo I inhibitory activity in vitro (Topo I): does have Topo I inhibitory activity in vitro
activity in in vivo cell killing assays [3]: does have

— patent US20050003502A1 (priority 2000, published 2005)
